# Experimental data: patent US12209075B2, “Pyridine-sulfonamide derivatives as sodium channel inhibitors” (GENENTECH, INC., priority 2018, dated 2025)
# pIC50: −log10 of the molar value. Structures can show the parent of a compound that is named as a salt.
# Target: hNav1.7 (Homo sapiens (Human), UniProt Q15858)
# Assay: Tritiated compound binding to membranes from cells expressing hNav1.7 and the β1 subunit (Nav1.7 LBA EVO)
# Conditions: competitive binding vs [3H]compound, membranes with hNav1.7 and β1 subunit
# Procedure: Example 64a. Tritiated Compound Binding to Membranes Isolated from Cells that Heterologously Express hNav1.7 and the β1 Subunit
# Preparation of membranes containing recombinantly expressed sodium channels: Frozen recombinant cell pellets are thawed on ice and diluted to 4 times the cell pellet weight with ice cold 50 mM Tris HCl, pH 7.4 buffer. The cell suspensions are homogenized on ice using a motorized glass dounce homogeniser. Homogenates are further diluted 8.4 times with ice cold 50 mM Tris HCl, pH 7.4 buffer and then centrifuged at 200×g at 4° C. for 15 minutes. The supernatants are collected and centrifuged at 10000×g at 4° C. for 50 min. The pellets are then re-suspended in 100 mM NaCl, 20 mM Tris HCl, pH 7.4 buffer containing 1% v/v protease inhibitors (Calbiochem) and re-homogenized on ice. The homogenized membranes are then processed through a syringe equipped with a 26 gauge needle. Protein concentrations arer determined by Bradford Assay and the membranes are stored at −80° C.
# Radioligand Binding Studies: Saturation experiments. A competitive NaV1.7 inhibitor having a methyl group is tritiated. Three tritiums are incorporated in place of methyl hydrogens to generate [^3H]compound. Binding of this radioligand is performed in 5 mL borosilicate glass test tubes at room temperature. Binding is initiated by adding membranes to increasing concentrations of [^3H]compound in 100 mM NaCl, 20 mM Tris HCl, pH 7.4 buffer containing 0.01% w/v bovine serum albumin (BSA) for 18 h. Non-specific binding is determined in the presence of 1 μM unlabeled compound. After 18 h, the reactants are filtered through GF/C glass fiber filters presoaked in 0.5% w/v polyethylene imine. Filters are washed with 15 mL ice cold 100 mM NaCl, 20 mM Tris HCl, pH7.4 buffer containing 0.25% BSA to separate bound from free ligand. [^3H]compound bound to filters is quantified by liquid scintillation counting.
# Competitive binding experiments: Binding reactions are performed in 96-well polypropylene plates at room temperature for 18 h. In 360 μL, membranes are incubated with 100 pM [^3H]compound and increasing concentrations of Test Compound. Non-specific binding is defined in the presence of 1 μM unlabeled compound. Reactions are transferred and filtered through 96-well glass fiber/C filter plates presoaked with 0.5% polyethylene imine. The filtered reactions are washed 5 times with 200 μL ice cold buffer containing 0.25% BSA. Bound radioactivity is determined by liquid scintillation counting.
# Data Analysis: For saturation experiments, non-specific binding is subtracted from total binding to provide specific binding and these values are recalculated in terms of pmol ligand bound per mg protein. Saturation curves are constructed and dissociation constants are calculated using the single site ligand binding model: Beq=(Bmax*X)/(X+Kd), where Beq is the amount of ligand bound at equilibrium, Bmax is the maximum receptor density, Kd is the dissociation constant for the ligand, and X is the free ligand concentration. For competition studies percent inhibition is determined and IC50 values are calculated using a 4 parameter logistic model (% inhibition=(A+((B−A)/(1+((x/C)^D)))) using XLfit, where A and B are the maximal and minimum inhibition respectively, C is the IC50 concentration and D is the (Hill) slope.
# Example 64b. Tritiated Compound Binding to Membranes Isolated from Cells that Heterologous Express hNav1.7 and the β1 Subunit
# Preparation of membranes containing recombinantly expressed sodium channels: Following the procedure described in 31a, and making modifications as required to: centrifuge supernatants at 100000×g instead of 10000×g; re-suspend pellets in a buffer containing 0.01% BSA in addition to 100 mM NaCl, 20 mM Tris HCl, pH 7.4 buffer, and 1% v/v […]; and storing membranes at −80° C. in single use aliquots instead of pooled. […]
# Sequence of hNav1.7 (Q15858 whole entry, looked up): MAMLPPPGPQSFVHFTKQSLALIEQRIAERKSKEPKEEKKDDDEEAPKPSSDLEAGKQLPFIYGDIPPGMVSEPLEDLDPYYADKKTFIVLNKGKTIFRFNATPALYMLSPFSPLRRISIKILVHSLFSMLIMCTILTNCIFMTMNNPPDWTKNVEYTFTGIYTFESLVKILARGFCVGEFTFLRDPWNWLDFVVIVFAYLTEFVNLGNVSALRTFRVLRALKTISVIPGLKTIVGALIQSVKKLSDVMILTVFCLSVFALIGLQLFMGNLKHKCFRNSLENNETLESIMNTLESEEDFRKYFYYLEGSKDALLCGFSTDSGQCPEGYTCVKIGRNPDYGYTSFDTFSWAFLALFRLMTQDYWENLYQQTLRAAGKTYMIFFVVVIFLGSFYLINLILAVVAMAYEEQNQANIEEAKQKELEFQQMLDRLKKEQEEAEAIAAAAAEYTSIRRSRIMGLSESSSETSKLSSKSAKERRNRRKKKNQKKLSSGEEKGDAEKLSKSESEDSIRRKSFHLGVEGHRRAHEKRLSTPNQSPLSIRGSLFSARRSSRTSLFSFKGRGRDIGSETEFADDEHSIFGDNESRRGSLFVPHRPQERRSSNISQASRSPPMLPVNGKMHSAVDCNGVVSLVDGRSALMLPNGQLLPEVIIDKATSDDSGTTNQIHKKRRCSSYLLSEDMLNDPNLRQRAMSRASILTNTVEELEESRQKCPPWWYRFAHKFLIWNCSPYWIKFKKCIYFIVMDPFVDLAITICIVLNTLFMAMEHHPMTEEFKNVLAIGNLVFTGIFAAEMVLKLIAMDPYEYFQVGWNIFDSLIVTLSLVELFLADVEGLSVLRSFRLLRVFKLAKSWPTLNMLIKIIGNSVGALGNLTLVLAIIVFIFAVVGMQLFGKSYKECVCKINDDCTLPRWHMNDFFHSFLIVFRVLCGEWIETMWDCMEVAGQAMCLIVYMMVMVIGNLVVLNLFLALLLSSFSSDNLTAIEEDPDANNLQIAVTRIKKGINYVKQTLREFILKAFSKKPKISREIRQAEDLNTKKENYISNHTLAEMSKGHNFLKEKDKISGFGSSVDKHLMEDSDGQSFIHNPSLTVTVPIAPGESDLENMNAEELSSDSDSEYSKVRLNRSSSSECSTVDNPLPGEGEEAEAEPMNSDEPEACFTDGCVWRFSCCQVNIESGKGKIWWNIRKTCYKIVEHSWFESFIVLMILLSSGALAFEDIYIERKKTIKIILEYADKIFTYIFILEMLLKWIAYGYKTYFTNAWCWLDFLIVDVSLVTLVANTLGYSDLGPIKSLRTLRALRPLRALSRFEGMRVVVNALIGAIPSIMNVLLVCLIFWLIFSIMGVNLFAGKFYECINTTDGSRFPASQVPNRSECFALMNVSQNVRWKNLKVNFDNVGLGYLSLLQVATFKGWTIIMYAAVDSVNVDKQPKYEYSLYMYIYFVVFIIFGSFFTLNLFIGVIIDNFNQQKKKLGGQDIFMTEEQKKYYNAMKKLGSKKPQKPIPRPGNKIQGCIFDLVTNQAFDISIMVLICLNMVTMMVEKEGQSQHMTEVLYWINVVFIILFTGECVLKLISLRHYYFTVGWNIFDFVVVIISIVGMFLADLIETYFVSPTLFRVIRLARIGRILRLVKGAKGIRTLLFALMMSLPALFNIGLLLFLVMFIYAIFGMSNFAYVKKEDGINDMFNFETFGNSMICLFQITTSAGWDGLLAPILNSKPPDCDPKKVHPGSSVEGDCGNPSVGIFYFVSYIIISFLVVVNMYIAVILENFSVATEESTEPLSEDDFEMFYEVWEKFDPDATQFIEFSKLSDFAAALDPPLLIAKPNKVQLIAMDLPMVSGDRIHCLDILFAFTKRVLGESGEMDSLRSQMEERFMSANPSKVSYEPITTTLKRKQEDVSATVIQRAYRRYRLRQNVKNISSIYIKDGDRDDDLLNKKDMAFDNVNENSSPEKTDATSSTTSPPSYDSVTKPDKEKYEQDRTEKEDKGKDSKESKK
# Sequence of hNav1.7 (Q07699 whole entry partner, looked up): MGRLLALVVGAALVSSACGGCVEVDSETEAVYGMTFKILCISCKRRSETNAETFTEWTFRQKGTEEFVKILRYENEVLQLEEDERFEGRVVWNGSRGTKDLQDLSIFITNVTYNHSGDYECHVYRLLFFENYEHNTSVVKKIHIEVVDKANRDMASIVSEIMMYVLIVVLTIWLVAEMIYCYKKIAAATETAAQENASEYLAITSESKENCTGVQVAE
row,SMILES,pIC50
1,"Cc1nc(O[C@H]2CC[C@H](c3cc(Cl)ccc3Cl)C[C@@H]2N(C)C)ccc1S(=O)(=O)Nc1ccncn1 [Example 39, 6-(((1S,2S,4S)-4-(2,5-dichlorophenyl)-2-(dimethylamino)cyclohexyl)oxy)-2-methyl-N-(pyrimidin-4-yl)pyridine-3-sulfonamide formate]",9.03
2,"Cc1nc(O[C@H]2CC[C@H](c3ccc(F)c(C(F)(F)F)c3)C[C@@H]2N(C)C)ccc1S(=O)(=O)Nc1ccncn1 [Example 45, 6-(((1S,2S,4S)-2-(Dimethylamino)-4-(4-fluoro-3-(trifluoromethyl)phenyl)cyclohexyl)oxy)-2-methyl-N-(pyrimidin-4-yl)pyridine-3-sulfonamide formate]",9.04
3,"Cc1cc(O[C@H]2CC[C@H](c3cccc(C(F)(F)F)c3)C[C@@H]2N(C)C)ncc1S(=O)(=O)Nc1ccncn1 [Example 32, 6-(((1S,2S,4S)-2-(Dimethylamino)-4-(3-(trifluoromethyl)phenyl)cyclohexyl)oxy)-4-methyl-N-(pyrimidin-4-yl)pyridine-3-sulfonamide]",8.68
4,"CN(C)[C@H]1C[C@@H](c2cccc(C(F)(F)F)c2)CC[C@@H]1Oc1ncc(S(=O)(=O)Nc2ccncn2)cc1F [Example 21, 6-(((1S,2S,4S)-2-(Dimethylamino)-4-(3-(trifluoromethyl)phenyl)cyclohexyl)oxy)-5-fluoro-N-(pyrimidin-4-yl)pyridine-3-sulfonamide]",8.04
5,"CN(C)[C@H]1C[C@@H](c2cccc(C(F)(F)F)c2)CC[C@@H]1Oc1ncc(S(=O)(=O)Nc2ccncn2)cc1Br [Example 20, 5-bromo-6-(((1S,2S,4S)-2-(dimethylamino)-4-(3-(trifluoromethyl)phenyl)cyclohexyl)oxy)-N-(pyrimidin-4-yl)pyridine-3-sulfonamide formate]",7.55
6,"O=S(=O)(Nc1ccncn1)c1cnc(O[C@H]2CC[C@H](c3cccc(C(F)(F)F)c3)C[C@@H]2N2CCCCC2)c(Cl)c1 [Example 19, 5-chloro-6-(((1S,2S,4S)-2-(piperidin-1-yl)-4-(3-(trifluoromethyl)phenyl)cyclohexyl)oxy)-N-(pyrimidin-4-yl)pyridine-3-sulfonamide]",9.31
7,"Cc1nc(O[C@H]2CC[C@H](c3cc(Cl)cc(C(F)(F)F)c3)C[C@@H]2N(C)C)ccc1S(=O)(=O)Nc1ccncn1 [Example 49, 6-(((1S,2S,4S)-4-(3-chloro-5-(trifluoromethyl)phenyl)-2-(dimethylamino)cyclohexyl)oxy)-2-methyl-N-(pyrimidin-4-yl)pyridine-3-sulfonamide]",8.92
8,"O=S(=O)(Nc1ccncn1)c1ccc(O[C@H]2CC[C@H](c3cccc(C(F)(F)F)c3)C[C@@H]2N2CCCCC2)nc1 [Example 26, 6-(((1S,2S,4S)-2-(piperidin-1-yl)-4-(3-(trifluoromethyl)phenyl)cyclohexyl)oxy)-N-(pyrimidin-4-yl)pyridine-3-sulfonamide]",8.31
9,"Cc1nc(O[C@H]2CC[C@H](c3cccc(OC(F)(F)F)c3)C[C@@H]2N(C)C)ccc1S(=O)(=O)Nc1ccncn1 [Example 28, 6-(((1S,2S,4S)-2-(Dimethylamino)-4-(3-(trifluoromethoxy)phenyl)cyclohexyl)oxy)-2-methyl-N-(pyrimidin-4-yl)pyridine-3-sulfonamide]",8.39
10,"O=S(=O)(Nc1ccncn1)c1ccc(O[C@H]2CC[C@H](c3cccc(OC(F)(F)F)c3)C[C@@H]2N2CCCC2)nc1 [Example 10, N-(pyrimidin-4-yl)-6-(((1S,2S,4S)-2-(pyrrolidin-1-yl)-4-(3-(trifluoromethoxy)phenyl)cyclohexyl)oxy)-pyridine-3-sulfonamide]",7.17
11,"CN(C)[C@H]1C[C@@H](c2cccc(C(F)(F)F)c2)CC[C@@H]1Oc1cc(Cl)c(S(=O)(=O)Nc2ccncn2)cn1 [Example 31, 4-Chloro-6-(((1S,2S,4S)-2-(dimethylamino)-4-(3-(trifluoromethyl)phenyl)cyclohexyl)oxy)-N-(pyrimidin-4-yl)pyridine-3-sulfonamide]",8.72
12,"CN(C)[C@H]1C[C@@H](c2cccc(C(F)(F)F)c2)CC[C@@H]1Oc1ncc(S(=O)(=O)Nc2ccncn2)cc1C1CC1 [Example 7, 5-Cyclopropyl-6-(((1S,2S,4S)-2-(dimethylamino)-4-(3-(trifluoromethyl)phenyl)cyclohexyl)oxy)-N-(pyrimidin-4-yl)pyridine-3-sulfonamide formate]",8.31
13,"Cc1nc(O[C@H]2CC[C@H](c3cc(C(F)(F)F)ccc3Cl)C[C@@H]2N(C)C)ccc1S(=O)(=O)Nc1ccncn1 [Example 38, 6-(((1S,2S,4S)-4-(2-chloro-5-(trifluoromethyl)phenyl)-2-(dimethylamino)cyclohexyl)oxy)-2-methyl-N-(pyrimidin-4-yl)pyridine-3-sulfonamide]",8.75
14,"Cc1nc(O[C@H]2CC[C@H](c3cccc(OC(F)(F)F)c3)C[C@@H]2N2CCCC2)ccc1S(=O)(=O)Nc1ccncn1 [Example 30, 2-Methyl-N-(pyrimidin-4-yl)-6-(((1S,2S,4S)-2-(pyrrolidin-1-yl)-4-(3-(trifluoromethoxy)phenyl)-cyclohexyl)oxy)pyridine-3-sulfonamide]",7.78
15,"CCN(C)[C@H]1C[C@@H](c2cccc(C(F)(F)F)c2)CC[C@@H]1Oc1ccc(S(=O)(=O)Nc2ccncn2)c(C)n1 [Example 48, 6-(((1S,2S,4S)-2-(Ethyl(methyl)amino)-4-(3-(trifluoromethyl)phenyl)cyclohexyl)oxy)-2-methyl-N-(pyrimidin-4-yl)pyridine-3-sulfonamide]",9.12
16,"Cc1ccc([C@H]2CC[C@H](Oc3ccc(S(=O)(=O)Nc4ccncn4)c(C)n3)[C@@H](N(C)C)C2)cc1C(F)(F)F [Example 56, 6-(((1S,2S,4S)-2-(dimethylamino)-4-(4-methyl-3-(trifluoromethyl)phenyl)cyclohexyl)oxy)-2-methyl-N-(pyrimidin-4-yl)pyridine-3-sulfonamide formate]",8.88
17,"Cc1nc(O[C@H]2CC[C@H](c3cccc(C(F)(F)F)c3)C[C@@H]2N(C)C2CCC2)ccc1S(=O)(=O)Nc1ccncn1 [Example 35, 6-(((1S,2S,4S)-2-(Cyclobutyl(methyl)amino)-4-(3-(trifluoromethyl)phenyl)cyclohexyl)oxy)-2-methyl-N-(pyrimidin-4-yl)pyridine-3-sulfonamide]",8.95
18,"CN(C)[C@H]1C[C@@H](c2cccc(C(F)(F)F)c2)CC[C@@H]1Nc1ncc(S(=O)(=O)Nc2ccncn2)cc1Cl [Example 4, 5-Chloro-6-(((1S,2S,4S)-2-(dimethylamino)-4-(3-(trifluoromethyl)phenyl)cyclohexyl)amino)-N-(pyrimidin-4-yl)pyridine-3-sulfonamide]",8.08
19,"Cc1ccc(C(F)(F)F)cc1[C@H]1CC[C@H](Oc2ccc(S(=O)(=O)Nc3ccncn3)c(C)n2)[C@@H](N(C)C)C1 [Example 54, 6-(((1S,2S,4S)-2-(dimethylamino)-4-(2-methyl-5-(trifluoromethyl)phenyl)cyclohexyl)oxy)-2-methyl-N-(pyrimidin-4-yl)pyridine-3-sulfonamide]",9.16
20,"CN(C)[C@H]1C[C@@H](c2cccc(C(F)(F)F)c2)CC[C@@H]1Oc1ncc(S(=O)(=O)Nc2ccncn2)cc1C(F)(F)F [Example 14, 6-(((1S,2S,4S)-2-(dimethylamino)-4-(3-(trifluoromethyl)phenyl)cyclohexyl)oxy)-N-(pyrimidin-4-yl)-5-(trifluoromethyl)pyridine-3-sulfonamide]",7.36
21,"CN(C)[C@H]1C[C@@H](c2cccc(C(F)(F)F)c2)CC[C@@H]1Oc1ncc(S(=O)(=O)Nc2ccncn2)cc1Cl [Example 3, 5-Chloro-6-(((1S,2S,4S)-2-(dimethylamino)-4-(3-(trifluoromethyl)phenyl)cyclohexyl)oxy)-N-(pyrimidin-4-yl)pyridine-3-sulfonamide]",7.40
